Experimental data taken from patent US20210395239A1 (Hoffmann-La Roche Inc., priority 2018, published 2021).

These compounds were tested against T1, hTLR9 (Homo sapiens, UniProt Q9NR96) (assay: HEK293-Blue-hTLR-9 cells assay (SEAP reporter, ODN2006 stimulation)). Conditions: HEK293-Blue-hTLR9 cells, ODN2006, 20 hrs; read-out: HEK/hTLR9 IC50.
T1 sequence (Q9NR96 26-1032): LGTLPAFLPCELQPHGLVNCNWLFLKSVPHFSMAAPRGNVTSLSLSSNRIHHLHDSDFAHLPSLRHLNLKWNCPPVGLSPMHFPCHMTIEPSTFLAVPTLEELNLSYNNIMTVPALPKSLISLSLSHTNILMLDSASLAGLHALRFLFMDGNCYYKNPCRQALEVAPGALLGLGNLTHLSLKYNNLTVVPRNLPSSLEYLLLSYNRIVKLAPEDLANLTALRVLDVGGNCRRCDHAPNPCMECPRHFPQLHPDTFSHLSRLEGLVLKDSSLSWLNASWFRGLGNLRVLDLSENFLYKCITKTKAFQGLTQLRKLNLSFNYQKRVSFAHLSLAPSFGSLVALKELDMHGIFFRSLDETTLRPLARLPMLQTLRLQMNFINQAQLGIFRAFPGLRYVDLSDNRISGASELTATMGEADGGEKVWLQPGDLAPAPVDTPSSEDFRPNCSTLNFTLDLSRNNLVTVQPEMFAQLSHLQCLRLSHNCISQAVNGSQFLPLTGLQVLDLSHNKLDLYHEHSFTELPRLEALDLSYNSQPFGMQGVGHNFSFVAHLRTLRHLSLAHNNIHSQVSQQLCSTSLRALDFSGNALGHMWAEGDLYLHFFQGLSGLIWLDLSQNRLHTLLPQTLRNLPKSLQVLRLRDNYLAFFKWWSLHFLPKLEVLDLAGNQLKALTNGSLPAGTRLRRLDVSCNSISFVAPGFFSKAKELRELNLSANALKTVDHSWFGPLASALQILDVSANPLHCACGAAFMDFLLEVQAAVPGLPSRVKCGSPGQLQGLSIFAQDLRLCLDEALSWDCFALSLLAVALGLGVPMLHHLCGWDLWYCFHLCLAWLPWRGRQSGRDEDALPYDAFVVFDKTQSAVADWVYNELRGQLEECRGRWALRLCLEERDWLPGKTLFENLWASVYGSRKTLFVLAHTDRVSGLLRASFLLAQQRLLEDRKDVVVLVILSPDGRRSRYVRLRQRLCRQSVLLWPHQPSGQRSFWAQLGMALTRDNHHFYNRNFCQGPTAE
Assay type: cell-based
Parameters: host or cells: HEK293 (HEK-Blue hTLR9)
Procedure, shortened: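 HEK293-Blue-hTLR9 cells with NF-κB/AP-1-driven SEAP reporter treated with serially diluted compound (1% DMSO final) plus ODN2006 for 20 h at 37 °C. Supernatant SEAP measured with QUANTI-Blue, 2 h at 37 °C, absorbance 620–655 nm; antagonism seen as reduced reporter signal.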

| IC50 [nM] | Compound |
| --- | --- |
| 64 | [2H]c1ccc2c(N3C[C@H](CN4CCN(c5ncc(N6C[C@@H](N)[C@H](OC)C6)cc5C)CC4)O[C@H](C)C3)ccc(C#N)c2n1 [Example 142, 5-[(2S,6R)-2-[[4-[5-[(3R,4R)-3-amino-4-methoxy-pyrrolidin-1-yl]-3-methyl-2-pyridyl]piperazin-1-yl]methyl]-6-methyl-morpholin-4-yl]-2-deuterio-quinoline-8-carbonitrile] |
| 47 | [2H]c1ccc2c(N3C[C@H](CN4CCN(c5ccc(N6C[C@@H](N)[C@H](OC)C6)nc5)CC4)O[C@H](C)C3)ccc(C#N)c2n1 [Example 143, 5-[(2S,6R)-2-[[4-[6-[(3R,4R)-3-amino-4-methoxy-pyrrolidin-1-yl]-3-pyridyl]piperazin-1-yl]methyl]-6-methyl-morpholin-4-yl]-2-deuterio-quinoline-8-carbonitrile] |
| 31 | [2H]c1ccc2c(N3C[C@H](CN4CCN(c5nc(C)cc(N6C[C@@H](N)[C@H](OC)C6)n5)CC4)O[C@H](C)C3)ccc(C#N)c2n1 [Example 144, 5-[(2S,6R)-2-[[4-[4-[(3R,4R)-3-amino-4-methoxy-pyrrolidin-1-yl]-6-methyl-pyrimidin-2-yl]piperazin-1-yl]methyl]-6-methyl-morpholin-4-yl]-2-deuterio-quinoline-8-carbonitrile] |
| 31 | [2H]c1ccc2c(N3C[C@H](CN4CC(c5cnc(N6CC(C)(N)C6)cc5C)C4)O[C@H](C)C3)ccc(C#N)c2n1 [Example 145, 5-[(2S,6R)-2-[[3-[6-(3-amino-3-methyl-azetidin-1-yl)-4-methyl-3-pyridyl]azetidin-1-yl]methyl]-6-methyl-morpholin-4-yl]-2-deuterio-quinoline-8-carbonitrile] |
| 31 | [2H]c1ccc2c(N3C[C@H](CN4CC(c5cnc(N6C[C@@H](N)[C@H](OC)C6)cc5C)C4)O[C@H](C)C3)ccc(C#N)c2n1 [Example 146, 5-[(2S,6R)-2-[[3-[6-[(3R,4R)-3-amino-4-methoxy-pyrrolidin-1-yl]-4-methyl-3-pyridyl]azetidin-1-yl]methyl]-6-methyl-morpholin-4-yl]-2-deuterio-quinoline-8-carbonitrile] |
| 181 | [2H]c1ccc2c(N3C[C@H](CN4CCN(c5ccc(N6CC(C)(N)C6)c(C)n5)CC4)O[C@H](C)C3)ccc(C#N)c2n1 [Example 147, 5-[(2S,6R)-2-[[4-[5-(3-amino-3-methyl-azetidin-1-yl)-6-methyl-2-pyridyl]piperazin-1-yl]methyl]-6-methyl-morpholin-4-yl]-2-deuterio-quinoline-8-carbonitrile] |
| 75 | Cc1cc(N2CC(C)(N)C2)cnc1N1CCN(C[C@H]2CN(c3ccc(C#N)n4ncc(F)c34)C[C@@H](C)O2)CC1 [Example 148, 4-[(2S,6R)-2-[[4-[5-(3-amino-3-methyl-azetidin-1-yl)-3-methyl-2-pyridyl]piperazin-1-yl]methyl]-6-methyl-morpholin-4-yl]-3-fluoro-pyrazolo[1,5-a]pyridine-7-carbonitrile] |
| 68 | [2H]c1ccc2c(N3C[C@H](CN4CC(c5ccc(N6C[C@@H](N)[C@H](OC)C6)nc5)C4)O[C@H](C)C3)ccc(C#N)c2n1 [Example 149, 5-[(2S,6R)-2-[[3-[6-[(3R,4R)-3-amino-4-methoxy-pyrrolidin-1-yl]-3-pyridyl]azetidin-1-yl]methyl]-6-methyl-morpholin-4-yl]-2-deuterio-quinoline-8-carbonitrile] |
| 175 | [2H]c1ccc2c(N3C[C@H](CN4CCN(c5ccc(N6C[C@H](N)[C@@H](F)C6)nc5)CC4)O[C@H](C)C3)ccc(C#N)c2n1 [Example 150, 5-[(2S,6R)-2-[[4-[6-[(3S,4S)-3-amino-4-fluoro-pyrrolidin-1-yl]-3-pyridyl]piperazin-1-yl]methyl]-6-methyl-morpholin-4-yl]-2-deuterio-quinoline-8-carbonitrile] |
| 96 | [2H]c1ccc2c(N3C[C@H](CN4CCN(c5ccc(N6C[C@@H]7C[C@H]6CN7)nc5)CC4)O[C@H](C)C3)ccc(C#N)c2n1 [Example 151, 2-deuterio-5-[(2S,6R)-2-[[4-[6-[(1S,4S)-2,5-diazabicyclo[2.2.1]heptan-2-yl]-3-pyridyl]piperazin-1-yl]methyl]-6-methyl-morpholin-4-yl]quinoline-8-carbonitrile] |
| 99 | [2H]c1ccc2c(N3C[C@H](CN4CCN(c5ccc(N6CC7(CNCCO7)C6)nc5)CC4)O[C@H](C)C3)ccc(C#N)c2n1 [Example 152, 2-deuterio-5-[(2R,6S)-2-methyl-6-[[4-[6-(5-oxa-2,8-diazaspiro[3.5]nonan-2-yl)-3-pyridyl]piperazin-1-yl]methyl]morpholin-4-yl]quinoline-8-carbonitrile] |
| 113 | [2H]c1ccc2c(N3C[C@H](CN4CCN(c5ccc(N6C[C@H]7C[C@@H]6CN7)nc5)CC4)O[C@H](C)C3)ccc(C#N)c2n1 [Example 153, 2-deuterio-5-[(2S,6R)-2-[[4-[6-[(1R,4R)-2,5-diazabicyclo[2.2.1]heptan-2-yl]-3-pyridyl]piperazin-1-yl]methyl]-6-methyl-morpholin-4-yl]quinoline-8-carbonitrile] |
| 112 | C[C@@H]1CN(c2ccc(C#N)n3ncc(F)c23)C[C@H](CN2CCN(c3ccc(N4CC(C)(N)C4)nc3)CC2)O1 [Example 154, 4-[(2S,6R)-2-[[4-[6-(3-amino-3-methyl-azetidin-1-yl)-3-pyridyl]piperazin-1-yl]methyl]-6-methyl-morpholin-4-yl]-3-fluoro-pyrazolo[1,5-a]pyridine-7-carbonitrile] |
| 71 | [2H]c1ccc2c(N3C[C@H](CN4CCN(c5cccc(N6CC(C)(N)C6)n5)CC4)O[C@H](C)C3)ccc(C#N)c2n1 [Example 155, 5-[(2S,6R)-2-[[4-[6-(3-amino-3-methyl-azetidin-1-yl)-2-pyridyl]piperazin-1-yl]methyl]-6-methyl-morpholin-4-yl]-2-deuterio-quinoline-8-carbonitrile] |
| 46 | [2H]c1ccc2c(N3C[C@H](CN4CC(O)(c5ccc(N6CC(C)(N)C6)cc5)C4)O[C@H](C)C3)ccc(C#N)c2n1 [Example 156, 5-[(2S,6R)-2-[[3-[4-(3-amino-3-methyl-azetidin-1-yl)phenyl]-3-hydroxy-azetidin-1-yl]methyl]-6-methyl-morpholin-4-yl]-2-deuterio-quinoline-8-carbonitrile] |
| 31 | C[C@@H]1CN(c2ccc(C#N)n3nccc23)C[C@H](CN2CC(c3ccc(N4CC(C)(N)C4)nc3)C2)O1 [Example 157, 4-[(2S,6R)-2-[[3-[6-(3-amino-3-methyl-azetidin-1-yl)-3-pyridyl]azetidin-1-yl]methyl]-6-methyl-morpholin-4-yl]pyrazolo[1,5-a]pyridine-7-carbonitrile] |
| 41 | C[C@@H]1CN(c2ccc(C#N)n3ncc(F)c23)C[C@H](CN2CC(c3ccc(N4CC(C)(N)C4)nc3)C2)O1 [Example 158, 4-[(2S,6R)-2-[[3-[6-(3-amino-3-methyl-azetidin-1-yl)-3-pyridyl]azetidin-1-yl]methyl]-6-methyl-morpholin-4-yl]-3-fluoro-pyrazolo[1,5-a]pyridine-7-carbonitrile] |
| 100 | [2H]c1ccc2c(N3C[C@H](CN4CC(c5cccc(N6CC(C)(N)C6)n5)C4)O[C@H](C)C3)ccc(C#N)c2n1 [Example 159, 5-[(2S,6R)-2-[[3-[6-(3-amino-3-methyl-azetidin-1-yl)-2-pyridyl]azetidin-1-yl]methyl]-6-methyl-morpholin-4-yl]-2-deuterio-quinoline-8-carbonitrile] |
